Assay results reported in the NIST ThermoML archive (doi:10.1021/je025657+).
Where “and” joins values, the source holds several entries; their conditions need not be identical. Equal values may be shown once. Numbers after ± are expanded uncertainties.

Details: for vapor or sublimation pressure: Closed cell (Static) method

COC(F)(F)F [trifluoromethoxymethane]
Details	mass density [kg/m3]
290 K, 4029.3 kPa, Liquid	1136.09 ± 0.84
290 K, 4505 kPa, Liquid	1138.14 ± 0.87
290 K, 4999.6 kPa, Liquid	1140.25 ± 0.9
290 K, 5546.1 kPa, Liquid	1142.55 ± 0.93
290 K, 6046.4 kPa, Liquid	1144.61 ± 0.97
290 K, 6496.3 kPa, Liquid	1146.42 ± 1
290 K, 6981.5 kPa, Liquid	1148.28 ± 1
300 K, 31.3 kPa, Gas	1.25 ± 0.25
300 K, 46.2 kPa, Gas	1.89 ± 0.26
300 K, 68 kPa, Gas	2.77 ± 0.26
300 K, 100.1 kPa, Gas	4.12 ± 0.26
300 K, 146.6 kPa, Gas	6.12 ± 0.27
300 K, 214 kPa, Gas	9.08 ± 0.28
300 K, 306.3 kPa, Gas	13.34 ± 0.29
300 K, 439.5 kPa, Gas	19.94 ± 0.32
300 K, 589.3 kPa, Gas	28.11 ± 0.34
300 K, 617 kPa, Liquid	1086.54 ± 0.55
300 K, 658.2 kPa, Liquid	1086.45 ± 0.55
300 K, 913.6 kPa, Liquid	1088.34 ± 0.56
300 K, 1058.4 kPa, Liquid	1088.91 ± 0.57
300 K, 1466.6 kPa, Liquid	1091.63 ± 0.59
300 K, 1522.9 kPa, Liquid	1091.63 ± 0.59
300 K, 1998.6 kPa, Liquid	1094.68 ± 0.61
300 K, 2016.1 kPa, Liquid	1094.48 ± 0.61
300 K, 2526.4 kPa, Liquid	1097.64 ± 0.63
300 K, 2545.5 kPa, Liquid	1097.41 ± 0.63
300 K, 3023.5 kPa, Liquid	1100.35 ± 0.65
300 K, 3063.2 kPa, Liquid	1100.24 ± 0.65
300 K, 3486.7 kPa, Liquid	1102.83 ± 0.68
300 K, 3535.6 kPa, Liquid	1102.72 ± 0.68
300 K, 4015.2 kPa, Liquid	1105.57 ± 0.71
300 K, 4063.9 kPa, Liquid	1105.45 ± 0.71
300 K, 4499.8 kPa, Liquid	1108.05 ± 0.73
300 K, 4569.3 kPa, Liquid	1107.99 ± 0.74
300 K, 5014.6 kPa, Liquid	1110.58 ± 0.76
300 K, 5140.6 kPa, Liquid	1110.81 ± 0.77
300 K, 5517 kPa, Liquid	1113.05 ± 0.79
300 K, 5669.7 kPa, Liquid	1113.35 ± 0.8
300 K, 6023 kPa, Liquid	1115.44 ± 0.82
300 K, 6155.2 kPa, Liquid	1115.66 ± 0.83
300 K, 6499 kPa, Liquid	1117.65 ± 0.85
300 K, 6683.2 kPa, Liquid	1118.07 ± 0.86
300 K, 6960.3 kPa, Liquid	1119.71 ± 0.88
300 K, 7091.7 kPa, Liquid	1119.94 ± 0.88
310 K, 38.3 kPa, Gas	1.49 ± 0.25
310 K, 56.5 kPa, Gas	2.22 ± 0.26
310 K, 83.1 kPa, Gas	3.29 ± 0.26
310 K, 121.9 kPa, Gas	4.87 ± 0.27
310 K, 178.2 kPa, Gas	7.22 ± 0.27
310 K, 258.9 kPa, Gas	10.69 ± 0.28
310 K, 372.5 kPa, Gas	15.8 ± 0.3
310 K, 528.4 kPa, Gas	23.4 ± 0.33
310 K, 742.6 kPa, Gas	35.17 ± 0.37
310 K, 813.1 kPa, Liquid	1051.26 ± 0.46
310 K, 836.7 kPa, Liquid	1051.44 ± 0.46
310 K, 861.7 kPa, Liquid	1051.63 ± 0.46
310 K, 1006.3 kPa, Liquid	1053.19 ± 0.47
310 K, 1033.6 kPa, Liquid	1052.9 ± 0.47
310 K, 1512.4 kPa, Liquid	1056.88 ± 0.48
310 K, 1533.9 kPa, Liquid	1056.54 ± 0.48
310 K, 2000.5 kPa, Liquid	1060.31 ± 0.5
310 K, 2046.2 kPa, Liquid	1060.13 ± 0.5
310 K, 2498.6 kPa, Liquid	1063.7 ± 0.52
310 K, 2539.9 kPa, Liquid	1063.48 ± 0.52
310 K, 3027.3 kPa, Liquid	1067.18 ± 0.54
310 K, 3099.5 kPa, Liquid	1067.15 ± 0.54
310 K, 3517 kPa, Liquid	1070.31 ± 0.56
310 K, 3564.5 kPa, Liquid	1070.1 ± 0.56
310 K, 4017.7 kPa, Liquid	1073.4 ± 0.58
310 K, 4131.5 kPa, Liquid	1073.59 ± 0.58
310 K, 4531.7 kPa, Liquid	1076.5 ± 0.6
310 K, 5049.8 kPa, Liquid	1079.54 ± 0.62
310 K, 5149.7 kPa, Liquid	1079.59 ± 0.62
310 K, 5542 kPa, Liquid	1082.34 ± 0.64
310 K, 5630.8 kPa, Liquid	1082.31 ± 0.65
310 K, 6021.1 kPa, Liquid	1085.02 ± 0.67
310 K, 6210.4 kPa, Liquid	1085.5 ± 0.68
310 K, 6538.6 kPa, Liquid	1087.83 ± 0.7
310 K, 6998 kPa, Liquid	1090.22 ± 0.72
310 K, 7191.1 kPa, Liquid	1090.69 ± 0.73
320 K, 46.4 kPa, Gas	1.77 ± 0.26
320 K, 68.4 kPa, Gas	2.64 ± 0.26
320 K, 100.6 kPa, Gas	3.89 ± 0.26
320 K, 147.5 kPa, Gas	5.74 ± 0.27
320 K, 215.4 kPa, Gas	8.49 ± 0.28
320 K, 312.9 kPa, Gas	12.57 ± 0.29

Liquid
Details	mass density	vapor or sublimation pressure
290 K	1119.31 ± 2.5 kg/m3	–
300 K	1086.15 ± 2.1 kg/m3 and 1086.47 ± 2.1 kg/m3 and 1086.56 ± 2.1 kg/m3	607.7 ± 1.2 kPa and 607.3 ± 1.2 kPa
305 K	–	698.7 ± 1.3 kPa
310 K	1054.67 ± 1.7 kg/m3 [middle of 4 runs]	800.9 ± 1.4 kPa and 800.7 ± 1.4 kPa and 801.7 ± 1.4 kPa
315 K	–	914.3 ± 1.5 kPa

Gas, Burnett expansion method
Details	mass density [kg/m3]
300 K, 124.2 kPa	5.136 ± 0.11
300 K, 170.5 kPa	7.128 ± 0.11
300 K, 183.4 kPa	7.703 ± 0.11
300 K, 251.4 kPa	10.75 ± 0.11
300 K, 268.7 kPa	11.56 ± 0.11
300 K, 364.7 kPa	16.13 ± 0.11
300 K, 388.1 kPa	17.29 ± 0.11
300 K, 519.4 kPa	24.16 ± 0.11
300 K, 550.3 kPa	25.89 ± 0.11
310 K, 128.7 kPa	5.137 ± 0.1
310 K, 177.1 kPa	7.139 ± 0.1
310 K, 190.3 kPa	7.705 ± 0.11
310 K, 261 kPa	10.74 ± 0.11
310 K, 279.4 kPa	11.56 ± 0.11
310 K, 380.4 kPa	16.14 ± 0.11
310 K, 405 kPa	17.3 ± 0.11
310 K, 545.9 kPa	24.27 ± 0.11
310 K, 578.6 kPa	25.97 ± 0.11
310 K, 759.9 kPa	36.24 ± 0.11
320 K, 133.1 kPa	5.135 ± 0.1
320 K, 183.4 kPa	7.139 ± 0.1
320 K, 197.1 kPa	7.701 ± 0.1
320 K, 270.9 kPa	10.74 ± 0.11
320 K, 289.9 kPa	11.55 ± 0.11
320 K, 395.7 kPa	16.14 ± 0.11
